Reference: publication PMC9481151, “Discovery of new symmetrical and asymmetrical nitrile-containing 1,4-dihydropyridine derivatives as dual kinases and P-glycoprotein inhibitors: synthesis, in vitro assays, and in silico studies” (Journal of Enzyme Inhibition and Medicinal Chemistry, 2022)

What was measured:
SN12C = assay: NCI single dose (10 µM) SRB screen; assay type: cell-based, human; details: renal cancer, 48 h
Escherichia coli = assay: Agar well diffusion method; details: relative to ciprofloxacin
HCC-2998 = assay: NCI single dose (10 µM) SRB screen; assay type: cell-based, human; details: colon cancer, 48 h
HCT-15 = assay: NCI single dose (10 µM) SRB screen; assay type: cell-based, human; details: colon cancer, 48 h
HOP-62 = assay: NCI single dose (10 µM) SRB screen; assay type: cell-based, human; details: non-small cell lung cancer, 48 h
Bacillus subtilis = assay: Agar well diffusion method; details: relative to ciprofloxacin
A498 = assay: NCI single dose (10 µM) SRB screen; assay type: cell-based, human; details: renal cancer, 48 h
SNB-75 = assay: NCI single dose (10 µM) SRB screen; assay type: cell-based, human; details: CNS cancer, 48 h
786-0 = assay: NCI single dose (10 µM) SRB screen; assay type: cell-based, human; details: renal cancer, 48 h
IGROV1 = assay: NCI single dose (10 µM) SRB screen; assay type: cell-based, human; details: ovarian cancer, 48 h
NCI-H226 = assay: NCI single dose (10 µM) SRB screen; assay type: cell-based, human; details: non-small cell lung cancer, 48 h
LOX IMVI = assay: NCI single dose (10 µM) SRB screen; assay type: cell-based, human; details: melanoma, 48 h
HOP-92 = assay: NCI single dose (10 µM) SRB screen; assay type: cell-based, human; details: non-small cell lung cancer, 48 h
A549/ATCC = assay: NCI single dose (10 µM) SRB screen; assay type: cell-based, human; details: non-small cell lung cancer, 48 h
DU-145 = assay: NCI single dose (10 µM) SRB screen; assay type: cell-based, human; details: prostate cancer, 48 h
KM12 = assay: NCI single dose (10 µM) SRB screen; assay type: cell-based, human; details: colon cancer, 48 h
Candida albicans = assay: Agar well diffusion method; details: relative to clotrimazole
K-562 = assay: NCI single dose (10 µM) SRB screen; assay type: cell-based, human; details: leukaemia, 48 h
HL-60(TB) = assay: NCI single dose (10 µM) SRB screen; assay type: cell-based, human; details: leukaemia, 48 h
HS578T = assay: NCI single dose (10 µM) SRB screen; assay type: cell-based, human; details: breast cancer, 48 h
MCF7 = assay: NCI single dose (10 µM) SRB screen; assay type: cell-based, human; details: breast cancer, 48 h
RPMI-8226 = assay: NCI single dose (10 µM) SRB screen; assay type: cell-based, human; details: leukaemia, 48 h
COLO 205 = assay: NCI single dose (10 µM) SRB screen; assay type: cell-based, human; details: colon cancer, 48 h
Aspergillus flavus = assay: Agar well diffusion method
SF-295 = assay: NCI single dose (10 µM) SRB screen; assay type: cell-based, human; details: CNS cancer, 48 h
NCI-H23 = assay: NCI single dose (10 µM) SRB screen; assay type: cell-based, human; details: non-small cell lung cancer, 48 h
OVCAR-8 = assay: NCI single dose (10 µM) SRB screen; assay type: cell-based, human; details: ovarian cancer, 48 h
NCI-H322M = assay: NCI single dose (10 µM) SRB screen; assay type: cell-based; details: non-small cell lung cancer, 48 h
NCI 60 cancer cell lines = assay: NCI single dose (10 µM) SRB screen, mean over panel; assay type: cell-based, human; details: mean over 60 cell lines, 48 h
MOLT-4 = assay: NCI single dose (10 µM) SRB screen; assay type: cell-based, human; details: leukaemia, 48 h
PC-3 = assay: NCI single dose (10 µM) SRB screen; assay type: cell-based, human; details: prostate cancer, 48 h
MALME-3M = assay: NCI single dose (10 µM) SRB screen; assay type: cell-based, human; details: melanoma, 48 h
RXF 393 = assay: NCI single dose (10 µM) SRB screen; assay type: cell-based, human; details: renal cancer, 48 h
ACHN = assay: NCI single dose (10 µM) SRB screen; assay type: cell-based, human; details: renal cancer, 48 h
MDA-MB-468 = assay: NCI single dose (10 µM) SRB screen; assay type: cell-based, human; details: breast cancer, 48 h
Pseudomonas aeruginosa = assay: Agar well diffusion method; details: relative to ciprofloxacin
SW-620 = assay: NCI single dose (10 µM) SRB screen; assay type: cell-based, human; details: colon cancer, 48 h
UACC-257 = assay: NCI single dose (10 µM) SRB screen; assay type: cell-based, human; details: melanoma, 48 h
SK-MEL-2 = assay: NCI single dose (10 µM) SRB screen; assay type: cell-based, human; details: melanoma, 48 h
Staphylococcus aureus = assay: Agar well diffusion method
UO-31 = assay: NCI single dose (10 µM) SRB screen; assay type: cell-based, human; details: renal cancer, 48 h
SF-539 = assay: NCI single dose (10 µM) SRB screen; assay type: cell-based, human; details: CNS cancer, 48 h
MDA-MB-231 = assay: NCI single dose (10 µM) SRB screen; assay type: cell-based, human; details: breast cancer, 48 h
SNB-19 = assay: NCI single dose (10 µM) SRB screen; assay type: cell-based, human; details: CNS cancer, 48 h
OVCAR-3 = assay: NCI single dose (10 µM) SRB screen; assay type: cell-based, human; details: ovarian cancer, 48 h
BT-549 = assay: NCI single dose (10 µM) SRB screen; assay type: cell-based, human; details: breast cancer, 48 h
NCI-H522 = assay: NCI single dose (10 µM) SRB screen; assay type: cell-based, human; details: non-small cell lung cancer, 48 h
EKVX = assay: NCI single dose (10 µM) SRB screen; assay type: cell-based, human; details: non-small cell lung cancer, 48 h
MDA-MB-435 = assay: NCI single dose (10 µM) SRB screen; assay type: cell-based, human; details: melanoma, 48 h
CCRF-CEM = assay: NCI single dose (10 µM) SRB screen; assay type: cell-based, human; details: leukaemia, 48 h
U251 = assay: NCI single dose (10 µM) SRB screen; assay type: cell-based, human; details: CNS cancer, 48 h
NCI/ADR-RES = assay: NCI single dose (10 µM) SRB screen; assay type: cell-based, human; details: ovarian cancer, 48 h
SK-OV-3 = assay: NCI single dose (10 µM) SRB screen; assay type: cell-based, human; details: ovarian cancer, 48 h
NCI-H460 = assay: NCI single dose (10 µM) SRB screen; assay type: cell-based, human; details: non-small cell lung cancer, 48 h
UACC-62 = assay: NCI single dose (10 µM) SRB screen; assay type: cell-based, human; details: melanoma, 48 h
T-47D = assay: NCI single dose (10 µM) SRB screen; assay type: cell-based, human; details: breast cancer, 48 h
M14 = assay: NCI single dose (10 µM) SRB screen; assay type: cell-based, human; details: melanoma, 48 h
TK-10 = assay: NCI single dose (10 µM) SRB screen; assay type: cell-based, human; details: renal cancer, 48 h
HT29 = assay: NCI single dose (10 µM) SRB screen; assay type: cell-based, human; details: colon cancer, 48 h
OVCAR-4 = assay: NCI single dose (10 µM) SRB screen; assay type: cell-based, human; details: ovarian cancer, 48 h
CAKI-1 = assay: NCI single dose (10 µM) SRB screen; assay type: cell-based, human; details: renal cancer, 48 h
OVCAR-5 = assay: NCI single dose (10 µM) SRB screen; assay type: cell-based, human; details: ovarian cancer, 48 h
HCT-116 = assay: NCI single dose (10 µM) SRB screen; assay type: cell-based, human; details: colon cancer, 48 h
SR = assay: NCI single dose (10 µM) SRB screen; assay type: cell-based, human; details: leukaemia, 48 h
SF-268 = assay: NCI single dose (10 µM) SRB screen; assay type: cell-based, human; details: CNS cancer, 48 h
SK-MEL-28 = assay: NCI single dose (10 µM) SRB screen; assay type: cell-based, human; details: melanoma, 48 h
SK-MEL-5 = assay: NCI single dose (10 µM) SRB screen; assay type: cell-based, human; details: melanoma, 48 h

Substance: Diethyl 4-(3-cyanophenyl)-2,6-dipropyl-1,4-dihydropyridine-3,5-dicarboxylate [Compound 1h]
- GI% SN12C (SN12C): – (Only GI% ≥ 10 are shown)
- % activity index, E. coli (Escherichia coli): – (Values below 25 are of limited value and not shown as they refer either to inactive or non-diffusing compounds)
- GI% HCC-2998 (HCC-2998): – (Only GI% ≥ 10 are shown)
- GI% HCT-15 (HCT-15): 17%
- GI% HOP-62 (HOP-62): – (Only GI% ≥ 10 are shown)
- % activity index, B. subtilis (Bacillus subtilis): – (Values below 25 are of limited value and not shown as they refer either to inactive or non-diffusing compounds)
- GI% A498 (A498): 18%
- GI% SNB-75 (SNB-75): 42%
- GI% 786-0 (786-0): 16%
- GI% IGROV1 (IGROV1): 10%
- GI% NCI-H226 (NCI-H226): 26%
- GI% LOX IMVI (LOX IMVI): – (Only GI% ≥ 10 are shown)
- GI% HOP-92 (HOP-92): 29%
- GI% A549/ATCC (A549/ATCC): 21%
- GI% DU-145 (DU-145): – (Only GI% ≥ 10 are shown)
- GI% KM12 (KM12): – (Only GI% ≥ 10 are shown)
- % activity index, C. albicans (Candida albicans): – (Values below 25 are of limited value and not shown as they refer either to inactive or non-diffusing compounds)
- GI% K-562 (K-562): 31%
- GI% HL-60(TB) (HL-60(TB)): – (Only GI% ≥ 10 are shown)
- GI% HS578T (HS578T): 18%
- GI% MCF7 (MCF7): 25%
- GI% RPMI-8226 (RPMI-8226): 34%
- GI% COLO 205 (COLO 205): – (Only GI% ≥ 10 are shown)
- Diameter of inhibition zone, A. flavus (Aspergillus flavus; 1 mg/mL in DMSO, 24 h, 36 °C): 8 mm
- % activity index, A. flavus (Aspergillus flavus; relative to clotrimazole): 32%
- GI% SF-295 (SF-295): 11%
- GI% NCI-H23 (NCI-H23): – (Only GI% ≥ 10 are shown)
- GI% OVCAR-8 (OVCAR-8): – (Only GI% ≥ 10 are shown)
- GI% NCI-H322M (NCI-H322M): – (Only GI% ≥ 10 are shown)
- Mean GI% (NCI 60 cancer cell lines): 14%
- GI% MOLT-4 (MOLT-4): 38%
- GI% PC-3 (PC-3): 47%
- GI% MALME-3M (MALME-3M): – (Only GI% ≥ 10 are shown)
- GI% RXF 393 (RXF 393): 18%
- GI% ACHN (ACHN): – (Only GI% ≥ 10 are shown)
- GI% MDA-MB-468 (MDA-MB-468): 20%
- % activity index, P. aeruginosa (Pseudomonas aeruginosa): – (Values below 25 are of limited value and not shown as they refer either to inactive or non-diffusing compounds)
- GI% SW-620 (SW-620): – (Only GI% ≥ 10 are shown)
- GI% UACC-257 (UACC-257): – (Only GI% ≥ 10 are shown)
- GI% SK-MEL-2 (SK-MEL-2): – (Only GI% ≥ 10 are shown)
- Diameter of inhibition zone, S. aureus (Staphylococcus aureus; 1 mg/mL in DMSO, 24 h, 36 °C): 7 mm
- % activity index, S. aureus (Staphylococcus aureus; relative to ciprofloxacin): 29.2%
- GI% UO-31 (UO-31): 19%
- GI% SF-539 (SF-539): 14%
- GI% MDA-MB-231 (MDA-MB-231): – (Only GI% ≥ 10 are shown)
- GI% SNB-19 (SNB-19): – (Only GI% ≥ 10 are shown)
- GI% OVCAR-3 (OVCAR-3): – (Only GI% ≥ 10 are shown)
- GI% BT-549 (BT-549): 14%
- GI% NCI-H522 (NCI-H522): 20%
- GI% EKVX (EKVX): 21%
- GI% MDA-MB-435 (MDA-MB-435): – (Only GI% ≥ 10 are shown)
- GI% CCRF-CEM (CCRF-CEM): 24%
- GI% U251 (U251): – (Only GI% ≥ 10 are shown)
- GI% NCI/ADR-RES (NCI/ADR-RES): 18%
- GI% SK-OV-3 (SK-OV-3): – (Only GI% ≥ 10 are shown)
- GI% NCI-H460 (NCI-H460): – (Only GI% ≥ 10 are shown)
- GI% UACC-62 (UACC-62): 19%
- GI% T-47D (T-47D): 32%
- GI% M14 (M14): – (Only GI% ≥ 10 are shown)
- GI% TK-10 (TK-10): – (Only GI% ≥ 10 are shown)
- GI% HT29 (HT29): 12%
- GI% OVCAR-4 (OVCAR-4): 32%
- GI% CAKI-1 (CAKI-1): 30%
- GI% OVCAR-5 (OVCAR-5): – (Only GI% ≥ 10 are shown)
- GI% HCT-116 (HCT-116): 30%
- GI% SR (SR): 32%
- GI% SF-268 (SF-268): 22%
- GI% SK-MEL-28 (SK-MEL-28): – (Only GI% ≥ 10 are shown)
- GI% SK-MEL-5 (SK-MEL-5): 31%
